We go through eight molecules from paper PMC11859423, “Fluorescent Probes to Image the KCa3.1 Channel in Tumor Cells” (Pharmaceutics, 2025).

The target in series [1] is T1, KCa3.1 channel in A549-3R cells (Homo sapiens, UniProt O15554).
T1 construct: the non-small cell lung cancer cell line A549-3R with a high expression of the KCa3.1 channel was employed; endogenous in cells; host or cells: A549-3R cells
Nature of the series: Staining of fixed A549-3R tumor cells (Protocol 1), fluorescence microscopy. Type of series: cell-based. To be noted: 10 µM in PBS, 10 min, 4 °C, Protocol 1. The method, then:
For the fixation of the cells, the DMEM medium was removed from the glass bottom dish after incubation for 24 h, and the cells were washed with 1 mL of PBS. Subsequently, 1 mL of 4% paraformaldehyde in PBS solution was added to the glass bottom dish and the mixture was incubated for 30 min at room temperature. Thereafter, the cells were washed five times with 1 mL of PBS and used for the cell staining experiments.
After fixation of the cells (Section 2.10.2), 300 µL of the 10 µM staining solution was added to the glass bottom dish. The cells were incubated for 10 min at 4 °C in a dark chamber. After incubation, the cells were washed five times with 1 mL of PBS and used subsequently for fluorescence microscopy.
An Axiovert 200 inverted microscope (Carl Zeiss AG, Jena, Germany) with a ×100 oil immersion objective and a digital camera (SPOT RT SE from Diagnostic Instruments Inc., Livingston, UK) were used. The camera was controlled by MetaVue software (version 6.3r6, Visitron, Germany). Two different filter sets were employed, the FITC filter set (Carl Zeiss Filter Set 10 bandwidth excitation filter 450–490, color splitter 510, bandpass filter 515–565) and the TRITC filter set (Carl Zeiss Filter Set 15, bandpass excitation filter 546/12, dichroic mirror 580, emission filter Long Pass 590).
Using the free imaging software ImageJ (1.53f51, NIH, USA), squares with an edge length of 50 × 50 pixels, corresponding to an area of 9 µm^2, were randomly placed in a cell and signals with Full Width at Half Maximum (FWHM) of ≤5 pixels (~300 nm) were counted as a KCa3.1 channel. For the evaluation, 7 squares were analyzed.
For the staining experiments, the non-small cell lung cancer cell line A549-3R with a high expression of the KCa3.1 channel was employed. An optimized staining protocol (Protocol 1) described previously was followed to analyze the imaging properties of the fluorescent probes. In brief, the 10 µM solution of the senicapoc–dye conjugate in PBS was added to adherent A549-3R cells in a glass bottom dish and the set-up was incubated for 10 min at 4 °C in a dark chamber. After careful washing, the cells were analyzed with a fluorescence microscope.
The images were analyzed with respect to size and density of the fluorescent dots. For this purpose, a square with a size of 50 × 50 pixels was randomly placed on the cell images using ImageJ. The intensities of the signals within the square were analyzed to calculate the Full Width at Half Maximum (FWHM) for each selected dot, which represents a measure for the signal size. For the accurate representation of a single KCa3.1 channel, the FWHM should be in the range of five pixels. Signals with a FWHM of ≤5 pixels within the square were regarded as labeled KCa3.1 channels and the number of identified channels was used to determine the density of the ion channels on the cells (Figure S8, Supplementary Materials).

Series [2] is described as follows: logP by HPLC retention time correlation. The conditions noted are these: standardized reversed phase HPLC system. Type of series: physicochemical. The method, then: The logP values were recorded using HPLC analysis. Thus, the retention time of the test compound in a standardized reversed phase HPLC system is correlated with the retention times of compounds with known logP values.
In addition to the logD7.4 values, the logP values of the fluorescent probes were recorded by HPLC, i.e., after calibration of the method, the retention times were correlated with the logP values or the compounds [33]. […] Fluorescein-labeled ligands 21a and 21b are considerably more polar than the corresponding bodipy-labeled senicapoc derivatives.

Details of series [3]: method as in PMID 36315933. The conditions noted are these: previously reported values; cited from earlier work.
Series [4] deals with T1, KCa3.1 channel in A549-3R cells. The arrangement: method as in PMID 36315933. To be noted: previously reported; cited from earlier work.
The nature of series [5]: UV-Vis absorption and time-resolved photoluminescence spectroscopy. Type of series: physicochemical. The conditions noted are these: for Absorption λmax / Emission λmax / Stokes Shift / ΦF absolute quantum yield / τ photoluminescence lifetime: c = 10^−5 M, 298 K. The method, then: All solvents used were of spectrometric grade (Uvasol®). UV-visible absorption spectra were measured using a Shimadzu UV–VIS spectrophotometer (UV-3600i). Photoluminescence quantum yields were measured with a Hamamatsu Photonics absolute PL quantum yield measurement system (C9920-02) equipped with a L9799-01 CW Xe light source (150 W), a monochromator, a C7473 photonic multi-channel analyzer, an integrating sphere and employing U6039-05 software, version 3.6.0. (Hamamatsu Photonics, Ltd., Shizuoka, Japan). Steady-state excitation and emission spectra were recorded on a FluoTime 300 spectrometer from PicoQuant equipped with a 300 W ozone-free Xe lamp (200–1100 nm), a 10 W Xe-flash lamp (200–1100 nm, pulse width ca. 1 µs) with repetition rates of 1–300 Hz, a double-grating excitation monochromator (Czerny–Turner type, grating with 1200 lines/mm, blaze wavelength: 300 nm), diode lasers (pulse width < 20 ps) operated by a computer-controlled laser driver PDL-828 “Sepia II” (repetition rate up to 80 MHz, burst mode for slow and weak decays), two emission monochromators (Czerny–Turner, selectable between double-grating blazed at 500 nm with 2.7 nm/mm dispersion and 1200 lines/mm, or single-grating blazed at 1250 nm with 5.4 nm/mm dispersion and 600 lines/mm) with adjustable slit width between 25 μm and 7 mm. Glam–Thompson polarizers for excitation (after the Xe-lamps) and emission (after the sample) were used. Different sample holders (Peltier-cooled mounting unit ranging from −15 to 110 °C or an adjustable front-face sample holder), along with two detectors (namely a PMA Hybrid-07 from PicoQuant with transit time spread FWHM < 50 ps, 200–850 nm, or a H10330C-45-C3 NIR detector with transit time spread FWHM 0.4 ns, 950–1400 nm from Hamamatsu) were used. Steady-state spectra and photoluminescence lifetimes were recorded in TCSPC mode by a PicoHarp 300 (minimum base resolution 4 ps) or in MCS mode by a TimeHarp 260 (where up to several ms can be traced). Emission and excitation spectra were corrected for source intensity (lamp and grating) by standard correction curves. For samples with lifetimes in the ns order, an instrument response function calibration (IRF) was performed using a diluted Ludox® dispersion. Lifetime analysis was performed using the commercial EasyTau 2 software, version 2.3. (PicoQuant, Berlin, Germany). The quality of the fit was assessed by minimizing the reduced chi squared function (χ^2) and visual inspection of the weighted residuals and their autocorrelation.
Fluorescence microscopy was used for the analysis of KCa3.1 channel labeling of cells with fluorescent dyes. Therefore, the photophysical properties of fluorescently labeled senicapoc derivatives 15a, 21a, and 22 were determined. Since the fluorophores are separated from the rest of the molecule by a linker, the photophysical properties could be recorded using azide precursors 6a, 6b, and 7a as well.

Series [6] can be described thus: logD7.4 by micro shake flask method (n-octanol / MOPS buffer pH 7.4, LC-MS). The conditions noted are these: read-out: logD7.4 ± SD (Micro Shake Flask). Type of series: physicochemical. The method, then: The logD7.4 values were recorded using the micro shake flask method. In this method, the test compound is distributed between n-octanol and MOPS buffer pH 7.4, and the amount of the compound in the buffer layer is determined by mass spectrometry.
The new fluorescent dyes were designed to increase the polarity and reduce the non-specific labeling of lipophilic membranes of cells. Moreover, a higher polarity should lead to increased water solubility and thus improved handling of the dyes. The logD7.4 value was recorded as a measure of the polarity/lipophilicity using our recently published micro-shake flask method. According to this method, the amount of compound in the aqueous 3-morpholinopropanesulfonic acid (MOPS) buffer pH 7.4 was determined by LC-MS [31, 32].

Several values for one entry are separate records, joined by “and”; a condition that tells them apart may be missing. Equal values may be shown once. Entries after “also recorded” stand apart in the source; their conditions may differ.

As for `CCC1=C(C)C2=C(c3ccc(OCCOCCN=[N+]=[N-])cc3)c3c(C)c(CC)c(C)n3[B-](F)(OC)[N+]2=C1C` (centres unmarked) [7b, 8-{4-[2-(2-Azidoethoxy)ethoxy]phenyl}-2,6-diethyl-4-fluoro-4-methoxy-1,3,5,7-tetramethyl-4-bora-3a,4a-diaza-s-indacene], the “staining pattern of fixed A549-3R tumor cells” value (“staining pattern” below) in series [1] was “a punctate staining pattern characteristic for the interaction with the ion channel was not observed; also recorded: high fluorescence intensity inside and around the nucleus”.
In series [2], `CC1=CC(C)=[N+]2C1=C(c1ccc(OCCOCCn3cc(COc4ccc(C(C(N)=O)(c5ccccc5)c5ccc(F)cc5)cc4)nn3)cc1)c1c(C)cc(C)n1[B-]2(F)F` (centres unmarked) [9a] showed a chromatographic logP of 5.4. Moreover, the “logD7.4 ± SD (Micro Shake Flask)” value in series [3] is reported as 4.73 ± 0.03. Further, in series [4], the staining properties entry is listed as “promising staining properties”.
As for `CCC1=C(C)C2=C(c3ccc(OCCOCCn4cc(COc5ccc(C(C(N)=O)(c6ccccc6)c6ccc(F)cc6)cc5)nn4)cc3)c3c(C)c(CC)c(C)n3[B-](F)(F)[N+]2=C1C` (centres unmarked) [9b, 2-{4-[(1-{2-[4-(2,6-Diethyl-4,4-difluoro-1,3,5,7-tetramethyl-4-bora-3a,4a-diaza-s-indacen-8-yl)phenoxy]ethoxyethyl}-1,2,3-triazol-4-yl)methoxy]phenyl}-2-(4-flluorophenyl)-2-phenylacetamide], in series [2], the chromatographic logP came out at 6.7. Besides, in series [1], the “staining pattern” value is listed as “unspecific staining; also recorded: unspecific labeling”.
The molecule `CC1=CC(C)=[N+]2C1=C(CCCCn1cc(COc3ccc(C(C(N)=O)(c4ccccc4)c4ccc(F)cc4)cc3)nn1)c1c(C)cc(C)n1[B-]2(F)F` (centres unmarked) [15a, 2-[4-({1-[4-(4,4-Difluoro-1,3,5,7-tetramethyl-4-bora-3a,4a-diaza-s-indacen-8-yl)butyl]-1,2,3-triazol-4-yl}methoxy)phenyl]-2-(4-fluorophenyl)-2-phenylacetamide] displayed a chromatographic logP in series [2] of 4.8. This molecule also had a quantum yield in series [5] (see Table 2) of 96%. Moreover, in series [5] (solution (CH2Cl2 or CH3CN)), the “Absorption λmax” value worked out at 501 nm, the “Emission λmax” value turned out to be 513 nm, the “Stokes Shift” value is on record as 12 nm and the “ΦF absolute quantum yield” value was determined as 0.96 ± 0.04. Further, the τ photoluminescence lifetime in series [5] (solution (CH2Cl2 or CH3CN)) is 5.77 ns and 5.77 ± 0.02 ns. The “staining pattern” value in series [1] was “unspecific staining; also recorded: unspecific labeling”.
`CO[B-]1(F)n2c(C)cc(C)c2C(CCCCn2cc(COc3ccc(C(C(N)=O)(c4ccccc4)c4ccc(F)cc4)cc3)nn2)=C2C(C)=CC(C)=[N+]21` (centres unmarked) [16a, 2-[4-({1-[4-(4-Fluoro-4-methoxy-1,3,5,7-tetramethyl-4-bora-3a,4a-diaza-s-indacen-8-yl)butyl]-1,2,3-triazol-4-yl}methoxy)phenyl]-2-(4-fluorophenyl)-2-phenylacetamide]: the logD in series [6] was more than 5. The chromatographic logP in series [2] worked out at 4. Besides, the “staining pattern” value in series [1] is “unspecific staining; also recorded: unspecific labeling”.
The molecule `CCC1=C(C)C2=C(CCCCn3cc(COc4ccc(C(C(N)=O)(c5ccccc5)c5ccc(F)cc5)cc4)nn3)c3c(C)c(CC)c(C)n3[B-](F)(OC)[N+]2=C1C` (centres unmarked) [16b, 2-[4-({1-[4-(2,6-Diethyl-4-fluoro-4-methoxy-1,3,5,7-tetramethyl-4-bora-3a,4a-diaza-s-indacen-8-yl)butyl]-1,2,3-triazol-4-yl}methoxy)phenyl]-2-(4-fluorophenyl)-2-phenylacetamide] showed a chromatographic logP in series [2] of 5.4. The “staining pattern” value in series [1] was “unspecific staining; also recorded: unspecific labeling”.
As for `NC(=O)C(c1ccccc1)(c1ccc(F)cc1)c1ccc(OCCOCCNC(=S)Nc2ccc3c(c2)C(=O)OC32c3ccc(O)cc3Oc3cc(O)ccc32)cc1` (centres unmarked) [21a, 2-[4-(2-{2-[3-(3′,6′-Dihydroxy-3-oxo-3H-spiro[[2]benzofuran-1,9′-xanthen]-5-yl)thioureido]ethoxy}ethoxy)phenyl]-2-(4-fluorophenyl)-2-phenylacetamide], the logD in series [6] worked out at 1.69 ± 0.04. For the same molecule, in series [2] (HPLC at pH 6.0), the chromatographic logP is 1.5. For the same molecule, in series [5] (measured in H2O), the “Absorption λmax” value stood at 496 nm, the “Emission λmax” value is reported as 521 nm, the “Stokes Shift” value is given as 25 nm and the “ΦF absolute quantum yield” value was found to be 0.32 ± 0.02. Moreover, in series [5] (measured in H2O), the τ photoluminescence lifetime is listed as 4.21 ± 0.02 ns. Also, the “staining pattern” value in series [1] was “A weak green fluorescence of the membrane and an intense staining of the nucleus”.
`NC(=O)C(c1ccccc1)(c1ccc(F)cc1)c1ccc(OCCOCCOCCOCCNC(=S)Nc2ccc3c(c2)C(=O)OC32c3ccc(O)cc3Oc3cc(O)ccc32)cc1` (centres unmarked) [21b, 2-(4-{12-[3-(3′,6′-Dihydroxy-3-oxo-3H-spiro[[2]benzofuran-1,9′-xanthen]-5-yl)thioureido]-1,4,7,10-tteraoxadodecan-1-yl}phenyl)-2-(4-fluorophenyl)-2-phenylacetamide] displayed a chromatographic logP in series [2] (HPLC at pH 6.0) of 1.3. In addition, the “staining pattern” value in series [1] is “A weak green fluorescence of the membrane and an intense staining of the nucleus”.
